Ends that are not written are not given here.
molecular target: T1, HLA-A*11:01 (Homo sapiens, UniProt P04439, A114D/D185E/E176A/F33Y/L180Q/S129P/T187R); test: Fluorescence polarization competitive peptide-binding assay
T1 construct: purchased Pure Protein L.L.C
Procedure: Figure 1 Direct epitope discovery of WNV epitope GTL9. (A) RP-HPLC profile of HLA-A*11:01 peptides from uninfected (blue) and WNV-infected (red) cells. (B) MS ion spectra of HPLC fraction 50 from uninfected (black) and infected (red) cells. MS data were recorded for 300 scans. (C) Overlay of the MS/MS fragmentation pattern of ion 466.7 in the infected HPLC fraction 50 (identified as the GTL9 peptide; red) with the MS/MS fragmentation pattern for the GTL9 synthetic peptide (black). (D) Florescence polarization competitive binding assay with the GTL9 synthetic peptide and HLA-A*11:01.
These six WNV peptides fit the reported A*11:01-binding motif. […] The fluorescence polarization assay used to assess A*11:01 binding categorizes peptides with IC50 values <5,000 nM as high affinity. In summary, six WNV ligands were discovered by direct elution from A*11:01, these ligands were sequenced by tandem MS, their sequence was confirmed with synthetic ligands, they bound well to A*11:01, they were of traditional length, and these ligands were consistent with the previously reported A*11:01 motif.
MS ion maps were generated for HPLC fractions containing peptides. Fractions were ionized by using nanoelectrospray capillaries (Proxeon) into a QSTAR elite (Applied Biosystems) electrospray quadrupole time-of-flight mass spectrometer. Peptide sequences were determined manually by using the MASCOT software package (Matrix Science). Peptide binding to HLA-A*11:01 was determined using the florescence polarization method (Pure Protein L.L.C.).

**Q.** AVVVNPSVK [AVV9] was tested. Which IC50 did it give?
**A.** Its IC50 is 2.25 µM.

**Q.** With KSYETEYPK [KSY9] as the substance, how does the IC50 read?
**A.** The IC50 was 7.89 µM.

**Q.** How did the IC50 turn out when KNMEKPGLK [KNM9] was run?
**A.** Its IC50 is 24.3 µM.

**Q.** For RVLSLIGLK [RVL9], which IC50 is on record?
**A.** Its IC50 is 0.334 µM.

**Q.** For AIIEVDRSAAK [AII11], which IC50 is on record?
**A.** The IC50 was 11.2 µM.

**Q.** Which IC50 does the source give for GTLTSAINR [GTL9] here?
**A.** Its IC50 is 1.13 µM.

molecular target: HLA-A*11:01 (fluorescence polarisation peptide-binding assay); test: fluorescence polarisation; competitive binding assay of synthetic peptide with HLA-A*11:01 (Pure Protein L.L.C. method, ref. 45); IC50 <5,000 nM categorised as high affinity

**Q.** How did the IC50 turn out when “KSY9 synthetic peptide (WNV NS3 1894-1902)” was run?
**A.** Its IC50 is 7.88 µM.

**Q.** “AII11 synthetic peptide (WNV NS5 2559-2569)” was tested. Which IC50 did it give?
**A.** The IC50 was 11.2 µM.

**Q.** For “KNM9 synthetic peptide (WNV NS4B 2519-2527)”, which IC50 is on record?
**A.** Its IC50 is 24.3 µM.

**Q.** Which IC50 does the source give for “RVL9 synthetic peptide (WNV capsid 23-31)” here?
**A.** Its IC50 is 0.334 µM.

**Q.** Which IC50 does the source give for “AVV9 synthetic peptide (WNV NS4B 2458-2466)” here?
**A.** The IC50 was 2.25 µM.

**Q.** Which IC50 does the source give for “GTL9 synthetic peptide (WNV capsid 89-97)” here?
**A.** The IC50 was 1.13 µM.

— article PMC3677933, “Identification of Class I HLA T Cell Control Epitopes for West Nile Virus” (PLoS ONE, 2013)
